Measured values taken from the supplement of paper PMC11061612.

Key:
Assay in all cases: combination Emax (second highest fraction inhibited in the dose matrix, 72 h); higher = more inhibition; extreme values may be limits of the assay
[1] = system: NCI-H2405 (Lung Adenocarcinoma)
How it was run: (§1)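 After 24 hours at 37°C and 5% CO2 in 1536-well plates, cells in DMEM/F12 or RPMI plus 10% FBS received two-drug dose matrices for 72 hours. Viability came from CellTiter-Glo 2.0 luminescence and was scaled as inhibition, anchored at 0 by vehicle wells and at 1 by blank wells. Combination Emax is taken as the second-highest inhibition in the matrix, and Bliss excess as the observed combination effect less EA + EB − EA·EB, with EA and EB the single-agent effects.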

RPMI-7951 (Melanoma) = system: RPMI-7951 (Melanoma)
How it was run: as §1

[2] = system: SCC-3 (B-Cell Non-Hodgkin's Lymphoma)
How it was run: as §1

[3] = system: BV-173 (Chronic Myelogenous Leukemia)
How it was run: as §1

[4] = system: SNU-C1 (Colorectal Carcinoma)
How it was run: as §1

BT-20 (Breast Carcinoma) = system: BT-20 (Breast Carcinoma)
How it was run: as §1

[5] = system: SCC-9 (Oral Cavity Carcinoma)
How it was run: as §1

NB7 (Neuroblastoma) = system: NB7 (Neuroblastoma)
How it was run: as §1

[6] = system: KINGS-1 (Low Grade Glioma)
How it was run: as §1

[7] = system: OCUB-M (Breast Carcinoma)
How it was run: as §1

EW-18 (Ewing's Sarcoma) = system: EW-18 (Ewing's Sarcoma)
How it was run: as §1

[8] = system: OVISE (Ovarian Carcinoma)
How it was run: as §1

[9] = system: MFE-319 (Endometrial Carcinoma)
How it was run: as §1

A704 (Kidney Carcinoma) = system: A704 (Kidney Carcinoma)
How it was run: as §1

| SMILES | combination Emax [1] | combination Emax (RPMI-7951 (Melanoma)) | combination Emax [2] | combination Emax [3] | combination Emax [4] | combination Emax (BT-20 (Breast Carcinoma)) | combination Emax [5] | combination Emax (NB7 (Neuroblastoma)) | combination Emax [6] | combination Emax [7] | combination Emax (EW-18 (Ewing's Sarcoma)) | combination Emax [8] | combination Emax [9] | combination Emax (A704 (Kidney Carcinoma)) |
| --- | --- | --- | --- | --- | --- | --- | --- | --- | --- | --- | --- | --- | --- | --- |
| CN(CCO)CC[C@H](CSc1ccccc1)Nc1ccc(S(=O)(=O)NC(=O)c2ccc(N3CCC([C@@H](O)c4ccccc4-c4ccc(Cl)cc4)CC3)cc2)cc1S(=O)(=O)C(F)(F)F [AZD4320] + C[C@@H]1COCCN1C2=NC(=NC(=C2)C3(CC3)[S@](=N)(=O)C)C4=C5C=CNC5=NC=C4 [AZD6738] (first compound max 1 µM, 7x7, partner max 10 µM) | 0.415 | 0.951 | 0.941 | 0.953 | 0.658 | 0.765 | 0.466 | 0.691 | 0.53 | 0.823 | 0.897 | 0.961 | 0.928 | 0.809 |
| CC1(C)CCC(CN2CCN(c3ccc(C(=O)NS(=O)(=O)c4ccc(NCC5CCOCC5)c([N+](=O)[O-])c4)c(Oc4cnc5[nH]ccc5c4)c3)CC2)=C(c2ccc(Cl)cc2)C1 [Venetoclax] + Cn1cnc2c(F)c(Nc3ccc(Br)cc3Cl)c(C(=O)NOCCO)cc21 [Selumetinib] (first compound max 1 µM, 7x7, partner max 3 µM) | 0.373 | 0.424 | 0.205 | 0.906 | 0.467 | 0.231 | 0.386 | 0.137 | 0.262 | 0.286 | 0.26 | 0.206 | 0.145 | 0.158 |
| Cc1cc2ncnn2cc1Nc1ncc2c(n1)n(C1CCOCC1)c(=O)n2C [AZD7648] + CCN(CCO)CCCOc1ccc2c(Nc3cc(CC(=O)Nc4cccc(F)c4)[nH]n3)ncnc2c1 [AZD2811] (first compound max 10 µM, 7x7, partner max 1 µM) | 0.188 | 0.476 | 0.338 | 0.964 | 0.351 | 0.426 | 0.342 | 0.406 | 0.353 | 0.764 | 0.68 | 0.308 | 0.278 | 0.247 |
| CN(CCO)CC[C@H](CSc1ccccc1)Nc1ccc(S(=O)(=O)NC(=O)c2ccc(N3CCC([C@@H](O)c4ccccc4-c4ccc(Cl)cc4)CC3)cc2)cc1S(=O)(=O)C(F)(F)F [AZD4320] + CCN(CCO)CCCOc1ccc2c(Nc3cc(CC(=O)Nc4cccc(F)c4)[nH]n3)ncnc2c1 [AZD2811] (first compound max 1 µM, 7x7, partner max 1 µM) | 0.137 | 0.647 | 0.316 | 0.965 | 0.531 | 0.653 | 0.333 | 0.267 | 0.498 | 0.874 | 0.888 | 0.828 | 0.647 | 0.563 |
| Cn1cnc2c(F)c(Nc3ccc(Br)cc3Cl)c(C(=O)NOCCO)cc21 [Selumetinib] + CCN(CCO)CCCOc1ccc2c(Nc3cc(CC(=O)Nc4cccc(F)c4)[nH]n3)ncnc2c1 [AZD2811] (first compound max 10 µM, 7x7, partner max 1 µM) | 0.408 | 0.425 | 0.43 | 0.952 | 0.723 | 0.474 | 0.494 | 0.415 | 0.22 | 0.713 | 0.7 | 0.273 | 0.262 | 0.178 |
| CC(=O)Nc1cccc(-n2c(=O)n(C3CC3)c(=O)c3c(Nc4ccc(I)cc4F)n(C)c(=O)c(C)c32)c1 [Trametinib] + Cc1nc(-c2cn3c(n2)-c2ccc(-c4cnn(C(C)(C)C(N)=O)c4)cc2OCC3)n(C(C)C)n1 [Taselisib] (first compound max 1 µM, 7x7, partner max 10 µM) | 0.665 | 0.931 | 0.736 | 0.854 | 0.79 | 1 | 0.954 | 0.577 | 0.894 | 1 | 0.637 | 0.696 | 0.799 | 0.892 |
| Cc1c2c(nn1C)CSCc1cc(n(C)n1)CSc1cc(c3ccccc3c1)OCCCc1c(C(=O)O)n(C)c3c-2c(Cl)ccc13 [AZD5991] + Cc1cc2ncnn2cc1Nc1ncc2c(n1)n(C1CCOCC1)c(=O)n2C [AZD7648] (first compound max 1 µM, 7x7, partner max 10 µM) | 0.204 | 0.91 | 0.308 | 0.946 | 0.412 | 0.694 | 0.26 | 0.546 | 0.326 | 0.983 | 0.936 | 0.269 | 0.471 | 0.259 |
| Cn1cnc2c(F)c(Nc3ccc(Br)cc3Cl)c(C(=O)NOCCO)cc21 [Selumetinib] + C=CCn1c(=O)c2cnc(Nc3ccc(N4CCN(C)CC4)cc3)nc2n1-c1cccc(C(C)(C)O)n1 [AZD1775] (first compound max 10 µM, partner max 1 µM) | 0.395 | 0.741 | 0.896 | 0.925 | 0.627 | 0.695 | 0.518 | 0.619 | 0.361 | 0.0588 | 0.526 | 0.593 | 0.671 | 0.488 |
